# Measurements reported in patent publication US20240180900A1, “COMPOUNDS AND METHODS FOR THE TARGETED DEGRADATION OF ANDROGEN RECEPTOR” (Arvinas Operations, Inc., priority 2022, published 2024).
# “And” between values parts separate entries of the source, which are not always exact repeats. Equal entries are not always repeated. Where two headings read alike, the source gives them in different places.
# Key:
# AR H875Y/T878A = biological target: T1, AR H875Y/T878A (Homo sapiens, UniProt P10275, H875Y/T878A); assay: AR degradation in T-Rex-293 cell line, H875Y/T878A; format: cell-based; conditions: T-Rex-293, ELISA
# T1 construct: expressed in transfected cells; host or cells: T-REx-293
# From the text: FIG. 3 is a graph showing Compound A's ability to degrade clinically relevant mutated forms AR.
# To assess the ability of Compound A to degrade variants of the AR, vectors expressing wild-type AR or mutant AR proteins harboring clinically observed mutations in the ligand binding domain (13 with single amino acid changes or 4 with 2 amino acid changes) (Azad A. A., Volik S. V., Wyatt A. W., et al. Androgen receptor gene aberrations in circulating cell-free DNA: biomarkers of therapeutic resistance in castration-resistant prostate cancer. Clin Cancer Res. 2015; 21:2315-2324; Robinson D., Van Allen E. M., Wu Y. M., et al. Integrative clinical genomics of advanced prostate cancer. Cell. 2015; 161:1215-1228; Ledet E. M., Lilly M. B., Sonpavde G., et al. Comprehensive analysis of AR alterations in circulating tumor DNA from patients with advanced prostate cancer. Oncologist.
# [1] = food/PPI effect on single-dose PK in healthy volunteers (phase 1); format: in vivo, human; conditions: for CL/F: read-out: CL/F_Obs, Geometric Mean (Geometric CV %) (converted); for Vd/F: read-out: Vz/F, Geometric Mean (Geometric CV %)
# Experimental: The primary endpoints were AUCinf and Cmax. Additional parameters measured included AUClast and Tmax.
# This phase 1, open-label study included a crossover, fed/fasted cohort and a fixed-sequence PPI cohort. For the fed/fasted cohort, healthy male volunteers received a single oral dose of Compound A 200 mg in a fasted state during treatment A and in a fed state, following a high-calorie/high-fat meal, during treatment B. Participants were randomized to a dosing sequence of treatments AB or BA. For the PPI cohort, a single oral dose of Compound A 300 mg was administered alone in a fed state during treatment C, and during treatment D, participants received esomeprazole 40 mg for 5 days prior to a single oral dose of Compound A 300 mg on day 5 in a fed state. Participants were assigned to a fixed-dosing sequence of treatments CD. There was a 24-day washout period between Compound A treatments. PK blood samples were collected predose and at selected times up to 312 hours post-Compound A dose. Primary endpoints were area under the plasma concentration-time curve from the time of dosing extrapolated to infinity (AUCinf) and maximum plasma concentration (Cmax) of Compound A. Secondary endpoints included additional PK parameters and safety and tolerability.
# The effect of food and a PPI on the PK of Compound A was evaluated in healthy participants. PK results are presented in Tables 2 and 3 and are summarized here.
# VCaP tumor xenograft = assay: castrated mouse VCaP xenograft model, tumor growth inhibition; format: in vivo; conditions: castrated mice
# Experimental: Treatment groups (n=10 per group) were compared by one-way analysis of variance (ANOVA). Note: ns: not significant, *: p≤0.05, **: p≤0.01, ***: p≤0.001.
# The anti-tumor growth effects of Compound A in vivo were evaluated in the castrated mouse VCaP xenograft model. Briefly, 6- to 8-week-old male CB17/scid mice were implanted with 3×10^6 VCaP tumor cells in the flank region. Once the tumors reached a volume of approximately 100 mm^3, the mice were surgically castrated.
# [2] = preclinical exposure in the VCaP tumor xenograft mouse model; conditions: CB17/scid, in vivo, oral, 1 mg/kg/day, read-out: AUCinf, minimally efficacious preclinical exposure
# Experimental: Exposure at the 100 mg QD dose (N=6) with mean steady-state Compound A AUC0-24=4,610 ng*hr/mL on Cycle 1 Day 21 achieved the minimally efficacious preclinical exposure associated with tumor growth inhibition in the VCaP tumor xenograft mouse model (AUCinf=3,930 ng*hr/mL at 1 mg/kg/day dose; data not included).
# [3] = 200 mg, fed (test) vs fasted (reference)
# [4] = 300 mg, fed, esomeprazole 40 mg
# [5] = male, human, plasma, oral, 40 mg Esomeprazole + 300 mg
# [6] = male, human, plasma, oral, 200 mg, Fasted
# [7] = male, human, plasma, oral, 200 mg, Fed
# [8] = male, human, plasma, oral, 300 mg, 300 mg Alone
# T1 sequence (P10275 whole entry H875Y/T878A): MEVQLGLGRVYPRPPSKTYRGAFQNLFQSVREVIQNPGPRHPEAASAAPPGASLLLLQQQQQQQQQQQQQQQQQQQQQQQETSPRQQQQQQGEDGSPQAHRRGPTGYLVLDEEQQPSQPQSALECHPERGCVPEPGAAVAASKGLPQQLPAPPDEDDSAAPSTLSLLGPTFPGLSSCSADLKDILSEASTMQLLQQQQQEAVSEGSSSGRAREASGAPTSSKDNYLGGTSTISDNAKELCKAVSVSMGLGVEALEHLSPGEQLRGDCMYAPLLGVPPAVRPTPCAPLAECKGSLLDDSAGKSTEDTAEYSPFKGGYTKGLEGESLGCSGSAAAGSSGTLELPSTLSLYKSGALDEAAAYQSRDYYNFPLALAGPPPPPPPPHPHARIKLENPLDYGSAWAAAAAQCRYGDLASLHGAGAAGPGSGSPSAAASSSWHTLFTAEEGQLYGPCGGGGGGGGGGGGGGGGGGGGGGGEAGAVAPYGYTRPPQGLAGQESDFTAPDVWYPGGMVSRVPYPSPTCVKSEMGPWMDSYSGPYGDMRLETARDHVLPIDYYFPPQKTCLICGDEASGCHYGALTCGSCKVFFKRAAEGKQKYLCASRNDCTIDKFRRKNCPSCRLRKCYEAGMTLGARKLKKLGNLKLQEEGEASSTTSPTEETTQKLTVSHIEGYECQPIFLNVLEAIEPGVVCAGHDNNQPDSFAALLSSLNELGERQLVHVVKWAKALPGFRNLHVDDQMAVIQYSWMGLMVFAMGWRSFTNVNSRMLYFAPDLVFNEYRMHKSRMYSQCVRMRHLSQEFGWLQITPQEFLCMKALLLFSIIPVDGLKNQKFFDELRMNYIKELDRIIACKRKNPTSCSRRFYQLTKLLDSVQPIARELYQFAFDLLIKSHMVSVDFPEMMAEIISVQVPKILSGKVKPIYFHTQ
compound,measurement,setting,value
"COc1cc(O[C@H]2C(C)(C)[C@H](NC(=O)c3ccc(N4CCC(CN5CCN(c6ccc(C(=O)N[C@H]7CCC(=O)NC7=O)c(F)c6)CC5)CC4)cc3)C2(C)C)ccc1C#N [Compound A, 4-(4-((1-(4-(((1R,3R)-3-(4-cyano-3-methoxyphenoxy)-2,2,4,4-tetramethylcyclobutyl)carbamoyl)phenyl)piperidin-4-yl)methyl)piperazin-1-yl)-N—((S)-2,6-dioxopiperidin-3-yl)-2-fluorobenzamide]",DC50,AR H875Y/T878A,7.7 nM
same,"delay of median Tmax, fed vs fasted",[1]; 200 mg single oral dose,≈ 4 hours
same,"AUCinf Geometric LS Mean Ratio (fed/fasted), relative bioavailability",[1]; [3],306.34% and 306.3%
same,"AUClast Geometric LS Mean Ratio (fed/fasted), relative bioavailability",[1]; [3],313.03% and 313.0%
same,"Cmax Geometric LS Mean Ratio (fed/fasted), relative bioavailability",[1]; [3],394.46% and 394.5%
same,AUCinf Geometric LS Mean Ratio (with esomeprazole/alone),"[1]; 300 mg, fed",89.2%
same,AUClast Geometric LS Mean Ratio (with esomeprazole/alone),"[1]; 300 mg, fed",88.1%
same,Cmax Geometric LS Mean Ratio (with esomeprazole/alone),"[1]; 300 mg, fed",80.16% and 80.2%
same,reduction in AUCinf with esomeprazole vs Compound A alone,[1]; [4],~11%
same,reduction in Cmax with esomeprazole vs Compound A alone,[1]; [4],≈ 20% and ~20%
same,effect of esomeprazole on Compound A exposure,"[1]; 300 mg, moderate-fat fed conditions","small effect, but not clinically significant"
same,"increase of extent of systemic exposure (AUCinf), fed vs fasted","[1]; high fat meal vs fasted, humans",3.1 fold and ~3 fold
same,AUC(0-inf),"[1]; male, human, plasma, oral, 40 mg Esomeprazole + 300 mg, read-out: AUCinf-Obs, Geometric Mean (Geometric CV %)",9720 ng·h/mL
same,AUC(0-t),"[1]; male, human, plasma, oral, 40 mg Esomeprazole + 300 mg, read-out: AUClast, Geometric Mean (Geometric CV %)",9370 ng·h/mL
same,CL/F,[1]; [5],515 mL/min
same,Cmax,"[1]; male, human, plasma, oral, 40 mg Esomeprazole + 300 mg, read-out: Cmax, Geometric Mean (Geometric CV %)",117 ng/mL
same,half-life,"[1]; male, human, plasma, oral, 40 mg Esomeprazole + 300 mg, read-out: T1/2, Geometric Mean (Geometric CV %) (converted)",65.5 h
same,Tmax,"[1]; male, human, plasma, oral, 40 mg Esomeprazole + 300 mg, read-out: Tmax",10 h
same,Vd/F,[1]; [5],2920 L
same,AUC(0-inf),"[1]; male, human, plasma, oral, 200 mg, 200 mg alone, fasted, read-out: AUCinf, Geometric LS Mean",3460 ng·h/mL
same,AUC(0-t),"[1]; male, human, plasma, oral, 200 mg, 200 mg alone, fasted, read-out: AUClast, Geometric LS Mean",3300 ng·h/mL
same,Cmax,"[1]; male, human, plasma, oral, 200 mg, 200 mg alone, fasted, read-out: Cmax, Geometric LS Mean",36 ng/mL
same,AUC(0-inf),"[1]; male, human, plasma, oral, 200 mg, 200 mg alone, fed, read-out: AUCinf, Geometric LS Mean",10600 ng·h/mL
same,AUC(0-t),"[1]; male, human, plasma, oral, 200 mg, 200 mg alone, fed, read-out: AUClast, Geometric LS Mean",10300 ng·h/mL
same,Cmax,"[1]; male, human, plasma, oral, 200 mg, 200 mg alone, fed, read-out: Cmax, Geometric LS Mean",142 ng/mL
same,AUC(0-inf),"[1]; male, human, plasma, oral, 200 mg, Fasted, read-out: AUCinf-Obs, Geometric Mean (Geometric CV %)",3460 ng·h/mL
same,AUC(0-t),"[1]; male, human, plasma, oral, 200 mg, Fasted, read-out: AUClast, Geometric Mean (Geometric CV %)",3300 ng·h/mL
same,CL/F,[1]; [6],964 mL/min
same,Cmax,"[1]; male, human, plasma, oral, 200 mg, Fasted, read-out: Cmax, Geometric Mean (Geometric CV %)",36.1 ng/mL
same,half-life,"[1]; male, human, plasma, oral, 200 mg, Fasted, read-out: T1/2, Geometric Mean (Geometric CV %) (converted)",65.3 h
same,Tmax,"[1]; male, human, plasma, oral, 200 mg, Fasted, read-out: Tmax",7.75 h
same,Vd/F,[1]; [6],5450 L
same,AUC(0-inf),"[1]; male, human, plasma, oral, 200 mg, Fed, read-out: AUCinf-Obs, Geometric Mean (Geometric CV %)",10600 ng·h/mL
same,AUC(0-t),"[1]; male, human, plasma, oral, 200 mg, Fed, read-out: AUClast, Geometric Mean (Geometric CV %)",10300 ng·h/mL
same,CL/F,[1]; [7],315 mL/min
same,Cmax,"[1]; male, human, plasma, oral, 200 mg, Fed, read-out: Cmax, Geometric Mean (Geometric CV %)",142 ng/mL
same,half-life,"[1]; male, human, plasma, oral, 200 mg, Fed, read-out: T1/2, Geometric Mean (Geometric CV %) (converted)",58.7 h
same,Tmax,"[1]; male, human, plasma, oral, 200 mg, Fed, read-out: Tmax",12 h
same,Vd/F,[1]; [7],1600 L
same,AUC(0-inf),"[1]; male, human, plasma, oral, 200 mg, fasted, read-out: AUCinf",3460 ng·h/mL
same,AUC(0-inf),"[1]; male, human, plasma, oral, 200 mg, fed (high-fat meal), read-out: AUCinf",10600 ng·h/mL
same,half-life,"[1]; male, human, plasma, oral, 200 mg, under both fed and fasted conditions, read-out: mean T1/2",60 to 76 h
same,Tmax,"[1]; male, human, plasma, oral, 300 mg with esomeprazole 40 mg, fed, read-out: median Tmax",10 h
same,AUC(0-inf),"[1]; male, human, plasma, oral, 300 mg, 300 mg Alone, read-out: AUCinf-Obs, Geometric Mean (Geometric CV %)",10900 ng·h/mL
same,AUC(0-t),"[1]; male, human, plasma, oral, 300 mg, 300 mg Alone, read-out: AUClast, Geometric Mean (Geometric CV %)",10600 ng·h/mL
same,CL/F,[1]; [8],459 mL/min
same,Cmax,"[1]; male, human, plasma, oral, 300 mg, 300 mg Alone, read-out: Cmax, Geometric Mean (Geometric CV %)",146 ng/mL
same,half-life,"[1]; male, human, plasma, oral, 300 mg, 300 mg Alone, read-out: T1/2, Geometric Mean (Geometric CV %) (converted)",58.4 h
same,Tmax,"[1]; male, human, plasma, oral, 300 mg, 300 mg Alone, read-out: Tmax",7 h
same,Vd/F,[1]; [8],2320 L
same,AUC(0-inf),"[1]; male, human, plasma, oral, 300 mg, 300 mg alone, fed, read-out: AUCinf, Geometric LS Mean",10900 ng·h/mL
same,AUC(0-t),"[1]; male, human, plasma, oral, 300 mg, 300 mg alone, fed, read-out: AUClast, Geometric LS Mean",10600 ng·h/mL
same,Cmax,"[1]; male, human, plasma, oral, 300 mg, 300 mg alone, fed, read-out: Cmax, Geometric LS Mean",146 ng/mL
same,Tmax,"[1]; male, human, plasma, oral, 300 mg, 300 mg alone, fed, read-out: median Tmax",7 h
same,AUC(0-inf),"[1]; male, human, plasma, oral, 300 mg, 300 mg with esomeprazole, fed, read-out: AUCinf, Geometric LS Mean",9720 ng·h/mL
same,AUC(0-t),"[1]; male, human, plasma, oral, 300 mg, 300 mg with esomeprazole, fed, read-out: AUClast, Geometric LS Mean",9370 ng·h/mL
same,Cmax,"[1]; male, human, plasma, oral, 300 mg, 300 mg with esomeprazole, fed, read-out: Cmax, Geometric LS Mean",117 ng/mL
same,delay of median Tmax with esomeprazole,"[1]; male, human, plasma, oral, 300 mg, fed",3 h
same,Tmax,"[1]; male, human, plasma, po, 200 mg, 200 mg single oral dose, fasted, read-out: median Tmax",7.75 h
same,Tmax,"[1]; male, human, plasma, po, 200 mg, 200 mg single oral dose, fed (high-fat meal), read-out: median Tmax",12 h
same,TGI relative to vehicle control,"VCaP tumor xenograft; 0.1 mg/kg/day QD for 24 days, statistically insignificant",45%
same,TGI relative to vehicle control,"VCaP tumor xenograft; 0.3 mg/kg/day QD for 24 days, statistically insignificant",49%
same,TGI relative to vehicle control,VCaP tumor xenograft; 1 mg/kg/day QD for 24 days,81%
same,TGI relative to vehicle control,"VCaP tumor xenograft; 3 mg/kg/day QD for 24 days, oral gavage",100%
same,AUC(0-inf),[2],3930 ng·h/mL
